The values that follow come from patent US20100239563A1 (priority 2001, published 2010).

The test system of experiment [1] is influenza A virus strain fowl plague virus A/Fpv/Bratislava/79. Type of experiment: cell-based.
Experiment [2] deals with influenza A virus strain fowl plague virus A/Fpv/Bratislava/79 (H7N7). Type of experiment: cell-based.

Molecules are shown by their SMILES.

As to `Oc1ccc(-c2nc(-c3ccc(F)cc3)c(-c3ccncc3)[nH]2)cc1` [SB202190, 4-(4-fluorophenyl)-2-(4-hydroxyphenyl)-5-(4-pyridyl) 1H-imidazole], the “virus multiplication vs cells not treated with SB202190” value in experiment [1] is given as “significantly inhibited”.

In the case of `N#CC(=C(N)Sc1ccccc1N)C(C#N)=C(N)Sc1ccccc1N` [U0126, 1,4-diamino-2,3-dicyano-1,4-bis(2-aminophenylthio)butadiene], in experiment [2], the “virus multiplication vs cells not treated with U0126” value was “significantly inhibited”.
